Measurements taken from the OligoGym collection.
Where “and” joins values, the source holds several entries; their conditions need not be identical. Identical values can stand only once. HELM strings list units from the 5' end as sugar, base in round brackets, then linkage (d deoxyribose, r ribose, m 2'-O-methyl, p phosphodiester). Strings are as the collection lists them, not checked against the first reports. ss, as = sense and antisense strand; [lna] = locked nucleic acid (LNA); [una] = unlocked nucleic acid; [fl2r] = 2'-fluoro

Conditions: siRNA
Also: test system not given here.

Substance	target mRNA knockdown
RNA1{[lna](T)p.r(G)p.r(A)p.r(G)p.r(A)p.r(G)p.r(A)p.r(A)p.r(A)p.r(G)p.r(C)p.r(A)p.r(C)p.r(A)p.r(G)p.r(A)p.r(A)p.r(A)p.r(A)p.[lna](T)p.[lna](T)}|RNA2{[lna](T)p.r(U)p.r(U)p.r(U)p.r(C)p.r(U)p.r(G)p.r(U)p.r(G)p.r(C)p.r(U)p.r(U)p.r(U)p.r(C)p.r(U)p.r(C)p.r(U)p.r(C)p.r(A)p.[lna](T)p.[lna](T)}$$$RNA1{StrandType:ss}|RNA2{StrandType:as}$	67% and 72%
RNA1{r(A)p.r(A)p.r(G)p.[fl2r](U)p.r(A)p.r(G)p.r(U)p.r(C)p.r(C)p.r(C)p.[fl2r](C)p.r(C)p.r(U)p.[fl2r](U)p.r(G)p.r(A)p.r(A)p.r(G)p.r(A)p.r(T)p.r(T)}|RNA2{r(U)p.r(C)p.r(U)p.r(U)p.[fl2r](C)p.r(A)p.r(A)p.r(G)p.r(G)p.r(G)p.r(G)p.r(G)p.r(A)p.r(C)p.[fl2r](U)p.r(A)p.r(C)p.r(U)p.r(U)p.r(T)p.r(T)}$$$RNA1{StrandType:ss}|RNA2{StrandType:as}$	64%
RNA1{r(G)p.r(G)p.r(A)p.r(C)p.r(A)p.r(U)p.r(U)p.r(C)p.r(A)p.r(G)p.r(A)p.r(A)p.r(C)p.r(A)p.r(A)p.r(G)p.r(A)p.r(A)p.r(A)p.[una](U)p.[una](U)}|RNA2{r(U)p.r(U)p.r(U)p.r(C)p.r(U)p.r(U)p.[una](G)p.r(U)p.r(U)p.r(C)p.r(U)p.r(G)p.r(A)p.r(A)p.r(U)p.r(G)p.r(U)p.r(C)p.r(C)p.[una](U)p.[una](U)}$$$RNA1{StrandType:ss}|RNA2{StrandType:as}$	78%
RNA1{r(A)p.r(G)p.r(C)p.r(C)p.r(U)p.r(C)p.m(C)p.r(A)p.r(A)p.r(A)p.r(C)p.r(U)p.r(C)p.r(C)p.m(U)p.r(A)p.r(G)p.r(C)p.r(U)p.r(T)p.r(T)}|RNA2{r(A)p.r(G)p.r(C)p.m(U)p.r(A)p.r(G)p.r(G)p.r(A)p.r(G)p.r(U)p.r(U)p.m(U)p.r(G)p.r(G)p.r(A)p.r(G)p.r(G)p.r(C)p.r(U)p.r(T)p.r(T)}$$$RNA1{StrandType:ss}|RNA2{StrandType:as}$	65%
RNA1{m(U)p.r(A)p.m(A)p.r(A)p.m(G)p.r(C)p.m(U)p.r(G)p.m(G)p.r(A)p.m(A)p.r(A)p.m(G)p.r(G)p.m(G)p.r(A)p.m(C)p.r(G)p.m(G)p.r(T)p.r(T)}|RNA2{r(C)p.r(C)p.r(G)p.r(U)p.r(C)p.r(C)p.r(C)p.r(U)p.r(U)p.r(U)p.r(C)p.r(C)p.m(A)p.r(G)p.r(C)p.r(U)p.r(U)p.r(U)p.m(A)p.r(T)p.r(T)}$$$RNA1{StrandType:ss}|RNA2{StrandType:as}$	29%
RNA1{r(G)p.r(G)p.r(G)p.r(A)p.r(A)p.r(A)p.r(C)p.r(U)p.r(G)p.r(A)p.r(A)p.r(A)p.r(G)p.r(G)p.r(C)p.[fl2r](U)p.r(A)p.r(U)p.r(G)p.r(T)p.r(T)}|RNA2{r(C)p.r(A)p.r(U)p.r(A)p.r(G)p.r(C)p.r(C)p.r(U)p.r(U)p.r(U)p.r(C)p.r(A)p.r(G)p.r(U)p.r(U)p.r(U)p.r(C)p.r(C)p.r(C)p.r(T)p.r(T)}$$$RNA1{StrandType:ss}|RNA2{StrandType:as}$	50%
RNA1{[fl2r](A)p.r(A)p.[fl2r](G)p.r(G)p.[fl2r](A)p.r(C)p.[fl2r](C)p.r(U)p.[fl2r](A)p.r(G)p.[fl2r](A)p.r(G)p.[fl2r](G)p.r(A)p.[fl2r](G)p.r(U)p.[fl2r](C)p.r(A)p.r(C)p.r(T)p.r(T)}|RNA2{r(G)p.r(U)p.r(G)p.r(A)p.r(C)p.r(U)p.r(C)p.r(C)p.r(U)p.r(C)p.r(U)p.r(A)p.r(G)p.r(G)p.r(U)p.r(C)p.r(C)p.r(U)p.r(U)p.r(T)p.r(T)}$$$RNA1{StrandType:ss}|RNA2{StrandType:as}$	31%
RNA1{m(A)p.r(A)p.m(A)p.r(G)p.m(G)p.r(G)p.m(G)p.r(A)p.m(G)p.r(U)p.m(U)p.r(G)p.m(C)p.r(U)p.m(G)p.r(G)p.m(A)p.r(A)p.m(G)p.r(T)p.r(T)}|RNA2{r(C)p.r(U)p.r(U)p.r(C)p.r(C)p.r(A)p.r(G)p.r(C)p.m(A)p.m(A)p.r(C)p.r(U)p.r(C)p.r(C)p.r(C)p.r(C)p.r(U)p.r(U)p.r(U)p.r(T)p.r(T)}$$$RNA1{StrandType:ss}|RNA2{StrandType:as}$	47%
RNA1{r(A)p.m(C)p.r(A)p.r(G)p.r(A)p.r(A)p.r(A)p.r(G)p.r(A)p.r(G)p.r(U)p.r(U)p.r(C)p.r(G)p.r(A)p.r(G)p.r(G)p.r(A)p.r(G)p.r(T)p.r(T)}|RNA2{r(C)p.r(U)p.r(C)p.r(C)p.r(U)p.r(C)p.r(G)p.r(A)p.r(A)p.r(C)p.r(U)p.r(C)p.r(U)p.r(U)p.r(U)p.r(C)p.m(U)p.r(G)p.r(U)p.r(T)p.r(T)}$$$RNA1{StrandType:ss}|RNA2{StrandType:as}$	64%
RNA1{m(C)p.r(U)p.m(C)p.r(C)p.m(C)p.r(C)p.m(A)p.r(G)p.m(U)p.r(C)p.m(U)p.r(C)p.m(U)p.r(C)p.m(U)p.r(U)p.m(A)p.r(A)p.m(A)p.r(T)p.r(T)}|RNA2{r(U)p.r(U)p.r(U)p.r(A)p.r(A)p.r(G)p.r(A)p.r(G)p.r(A)p.r(G)p.r(A)p.r(C)p.r(U)p.r(G)p.r(G)p.r(G)p.r(G)p.r(A)p.r(G)p.r(T)p.r(T)}$$$RNA1{StrandType:ss}|RNA2{StrandType:as}$	51%
RNA1{r(C)p.r(C)p.r(G)p.r(A)p.r(A)p.r(G)p.r(A)p.r(C)p.r(G)p.r(A)p.r(A)p.r(G)p.r(C)p.[fl2r](U)p.r(A)p.[fl2r](U)p.r(G)p.r(A)p.r(A)p.r(T)p.r(T)}|RNA2{r(U)p.r(U)p.[fl2r](C)p.r(A)p.[fl2r](U)p.r(A)p.r(G)p.r(C)p.r(U)p.r(U)p.r(C)p.r(G)p.r(U)p.r(C)p.r(U)p.r(U)p.r(C)p.r(G)p.r(G)p.r(T)p.r(T)}$$$RNA1{StrandType:ss}|RNA2{StrandType:as}$	46%
RNA1{r(A)p.m(G)p.r(A)p.m(U)p.r(G)p.m(U)p.m(U)p.m(C)p.m(U)p.m(C)p.r(G)p.m(U)p.r(A)p.r(A)p.m(G)p.r(G)p.r(A)p.m(C)p.r(G)p.r(T)p.r(T)}|RNA2{r(C)p.r(G)p.r(U)p.r(C)p.r(C)p.r(U)p.r(U)p.r(A)p.r(C)p.r(G)p.r(A)p.r(G)p.r(A)p.r(A)p.r(C)p.r(A)p.r(U)p.r(C)p.r(U)p.r(T)p.r(T)}$$$RNA1{StrandType:ss}|RNA2{StrandType:as}$	53%
RNA1{[fl2r](U)p.r(C)p.[fl2r](C)p.r(A)p.[fl2r](A)p.r(G)p.[fl2r](C)p.r(U)p.[fl2r](U)p.r(C)p.[fl2r](C)p.r(U)p.[fl2r](C)p.r(G)p.[fl2r](U)p.r(U)p.[fl2r](G)p.r(G)p.[fl2r](U)p.r(T)p.r(T)}|RNA2{r(A)p.r(C)p.r(C)p.r(A)p.r(A)p.r(C)p.r(G)p.r(A)p.r(G)p.r(G)p.r(A)p.r(A)p.r(G)p.r(C)p.[fl2r](U)p.[fl2r](U)p.r(G)p.r(G)p.r(A)p.r(T)p.r(T)}$$$RNA1{StrandType:ss}|RNA2{StrandType:as}$	51%
RNA1{r(G)p.r(G)p.r(A)p.r(G)p.r(C)p.r(A)p.r(C)p.r(G)p.r(C)p.r(U)p.m(U)p.r(A)p.r(C)p.m(U)p.r(A)p.r(C)p.r(C)p.r(U)p.r(U)p.r(T)p.r(T)}|RNA2{r(A)p.r(A)p.r(G)p.r(G)p.m(U)p.r(A)p.r(G)p.m(U)p.r(A)p.r(A)p.r(G)p.r(C)p.r(G)p.r(U)p.r(G)p.r(C)p.r(U)p.r(C)p.r(C)p.r(T)p.r(T)}$$$RNA1{StrandType:ss}|RNA2{StrandType:as}$	69%
